These results are taken from patent US11690853B2, “Non-hormonal steroid modulators of NF-κβ for treatment of disease” (ReveraGen BioPharma, Inc., priority 2015, dated 2023).

Each structure is given as a SMILES string. “Also recorded” adds a separate entry of the source.

In data set [1] the test system is mdx mice. Briefly: mdx mouse model: histological evaluation of gastrocnemius muscle (H&E). The note with it: H&E staining; 3 months treatment; comparison to untreated and prednisolone treated mdx mice. The class given is in vivo. As for the experimental part: (§1) Separate groups (n=12-14) of mdx mice were treated with prednisolone (5 mg/kg/day; per oral in feed), Example 1 (20 and 40 mg/kg/day; per oral in feed) and Example 2 (20 and 40 mg/kg/day; per oral in feed) for 3 months. All mice underwent 30 min biweekly treadmill exercise during the treatment duration to unmask the mild disease phenotype of mdx mouse model.
Hematoxylin and Eosin staining of gastrocnemius muscle of untreated mdx mice show significant degeneration and inflammation.

The test system of data set [2] is DBA mdx mice. Briefly: Heart function in mdx mice (echocardiography). The class given is in vivo, mouse. The note with it: 15 and 30 mg/kg/day oral syrup, 8 weeks. An excerpt:
To test the compound of Example 7 and its relationship to heart function, 4 groups of mdx mice (n=10, per group) and 1 group of wild type mice (n=10, per group) were studied. The groups were as indicated as such in Table 2.
The method of administration was a daily oral syrup an the treatment period was eight (8) weeks. The age at the start of the first dose was 6-7 weeks. Echocardiography was used to assess ejection fraction and fraction shortening following drug treatment.

The test system of data set [3] is DBA/1 mice. Briefly: Collagen antibody induced arthritis (CAIA) model. The conditions noted are these: for Mean clinical severity score, Day 7 / Mean clinical severity score, Day 9 / Mean clinical severity score, Day 11 / Mean clinical severity score, Day 14: oral, day 0 through day 14; for Mean clinical severity score, Day 7 / Mean clinical severity score, Day 9 / Mean clinical severity score, Day 11 / Mean clinical severity score, Day 14 / Reduction as compared with vehicle-treated mice, Day 7 / Reduction as compared with vehicle-treated mice, Day 9 / Reduction as compared with vehicle-treated mice, Day 11 / Reduction as compared with vehicle-treated mice, Day 14: prednisone 5 mg/kg, Example 7 20 mg/kg. The arrangement: Mean clinical severity score, Day 7 / Mean clinical severity score, Day 9 / Mean clinical severity score, Day 11 / Mean clinical severity score, Day 14: scale not given here. The class given is in vivo, mouse. As for the experimental part:
On day 1, DBA/1 mice (Jackson Labs, Bar Harbor, Me.) received an intraperitoneal (i.p.) injection of 2 mg of monoclonal antibody cocktail specific for collagen (CII) (MD Biosciences, St. Paul, Minn.). Two days later (day 3), mice received an i.p. injection of 100 μg of lipopolysaccharide (LPS). Mean clinical severity of CAIA was determined using a macroscopic clinical severity scoring system every 2-3 days by three individuals until the end of the experiment (day 14 post antibody cocktail injection). The scoring criteria was performed as follows:
For intervention studies, mice (n=10) received an oral dose of 20 mg/kg of the compound of Example 7 suspended in cherry syrup (30 μl total volume) on day 0 through day 14. Additional groups of mice (n=10) received 5 mg/kg of prednisone in cherry syrup as a positive control, or cherry syrup alone as a negative control. On day 14, animals were sacrificed via CO2 exposure. Statistical analysis was performed using a two-way ANOVA followed by a Bonferroni post-hoc test.

For data set [4], the system named is knockout-transgenic sickle cell mice. Briefly: Mouse model of sickle cell disease. The class given is in vivo. The conditions noted are these: 30 mg/kg, 6 weeks. As for the experimental part: Example 7 was tested in a mouse model of sickle cell disease, knockout-transgenic sickle cell mice were used which have been previously described in Meiler S E et al. 2001.
Female knockout-transgenic sickle mice (aged 6-8 weeks), were treated for 6 weeks with Example 7, (30 mg/kg) (n=5), or a vehicle control (cherry syrup) (n=5). At the end of the 6 week treatment, hematologic parameters were measured and tissues were harvested. Additionally, nociception evaluation was performed before and after treatment by assessing sensitivity to hot and cold pain as previously described in Le Bars D. et al. 2001.

Data set [5] deals with Female beagle dogs. Nature of the data set: Corpora lutea in female dogs, 39-week treatment. The class given is in vivo, dog. The note with it: at ≥2 mg/kg/day, dose-dependent increases in incidence; doses of 2, 10, or 50 mg/kg for 39 weeks. Here is the method:
Female beagle dogs were treated with Example 7 for 39 weeks at doses of 2, 10, or 50 mg/kg. This experiment was performed at MPI (report #1998-014). Ovaries were examined by a trained pathologist.

Data set [6] concerns C57BL/6 mice. Briefly: Mouse carrageenan-induced paw edema model. The class given is in vivo. The conditions noted are these: Example 7 10, 20, 40 mg/kg in cherry syrup; 5 hours after carrageenan. Here is the method: Female C57BL/6 mice (n=5 per group) were administered prednisone (5 mg/kg) and the compound of Example 7 (10, 20, 40 mg/kg) in cherry syrup. 24 hours later, drugs and vehicle control (syrup) were administered again. 2 hours later, mice were anesthetized, paw thickness was measured with a caliper to obtain a baseline value, and 1% carrageenan was injected subcutaneously in the subplantar region of the right hind paw. Mice were sacrificed 5 hours later and paw edema was measured via caliper. Change in thickness was calculated by subtracting baseline value from post-carrageenan injection value. Statistical analysis was performed using a Student's T-test.
Background: Carrageenan injected into the paw causes an acute inflammation.

The test system of data set [7] is OVA-primed mice. Briefly: OVA-induced mouse model of acute allergic asthma. The conditions noted are these: 20 mg/kg oral on days 6-11. The class given is in vivo. Here is the method: The model used in the current studies has been previously described (Gwinn et al. 2006; Balsley et al. 2010). Briefly, mice were primed via intraperitoneal (i.p) injection with 50 μg of OVA in PBS with 100 μl of alum (200 μl total volume per mouse) on day 0. OVA-primed mice were challenged under light anesthesia (isoflurane) by intranasal delivery of 100 μg of OVA in PBS on days 7-10. Mice were sacrificed via CO2 exposure on day 12 for analysis.
For in vivo intervention studies, mice (n=5) received an oral dose of 20 mg/kg of the compound of Example 7 suspended in cherry syrup (30 μl total volume) on days 6-11. Additional groups of mice (n=5) received 5 mg/kg of prednisone in cherry syrup as a positive control, or cherry syrup alone as a negative control. Following sacrifice on day 12, leukocytes were collected from the airways via bronchoalveolar lavage (BAL). For this procedure, a cannula was inserted into the trachea and two 1 ml washes of cold PBS were infused in and out of the airways. […]
BAL and lung tissue cells were treated with ammonium chloride lysis buffer to remove red blood cells. The remaining leukocytes were then counted and stained for FACS analysis with a combination of PE-Cy5-anti-mouse CD4 and FITC-anti-mouse CD62L to identify effector/memory CD4+ cells (CD4+/CD62L−). […]

The subject of data set [8] is J:NU mice injected with BSG mouse CSPG4+/+ cells. Briefly: Mouse model of diffuse intrinsic pontine glioma. The class given is in vivo. Here is the method:
A murine model of brainstem glioma developed in Dr. Javad Nazarian's laboratory at Children's National Medical Center was used for testing VBP15 efficacy in vivo. BSG mouse CSPG4+/+ cells were expanded in culture to form neurospheres and were subsequently injected into brainstems of 2-day old (P2) J:NU mice. Dexamethasone (Dex) (2.5 mg/kg body weight), Example 7 (30 mg/kg body weight) and cherry syrup (control) were orally administered daily for […] starting on postnatal day 11. In another study, mice were treated daily with Dexamethasone (Dex) (2.5 mg/kg), Example 7 (30 mg/kg) or cherry syrup from post-natal days 10-46.

Data set [9] concerns mdx mice. Briefly: mdx mouse model: in vitro force contractions of EDL muscle. The class given is in vivo. The conditions noted are these: prednisolone 5 mg/kg/day; P<0.05. As for the experimental part: as §1
The distal tendon of the extensor digitorum longus (EDL) muscle was tied securely to the lever arm of a servomotor/force transducer (model 305B, Aurora Scientific, Richmond Hill, ON, Canada) and the proximal tendon to a tissue clamp. Muscles were stimulated between two platinum electrodes. […] With the muscle held at Lo using stimulation frequencies of 30, 50, 80, 100, 120 and 150 Hz, the maximum isometric tetanic force (Po) developed during a 300 ms train of stimulation pulses was recorded for the EDL muscle. The muscle length was then measured with calipers and after removal of the muscle from the bath the mass of the muscle was determined. For each muscle, the optimum fiber length (Lf) was calculated by multiplying Lo by a previously determined Lf/Lo ratio of 0.45. Total muscle fiber cross-sectional area was determined by dividing the wet mass by the product of Lf and the density of mammalian skeletal muscle (1.06 mg/mm^3). […]

Data set [10] has as its system mdx mice. Briefly: mdx mouse model of dystrophy: body weight. The class given is in vivo. The note with it: prednisolone 5 mg/kg/day per oral in feed; 33.8 weeks age; P<0.05. As for the experimental part: as §1

Take `C[C@]12CCC(=O)C=C1CCC1C2=CC[C@@]2(C)C1CC[C@]2(O)C(=O)CO` (stereo partly drawn) [Example 1, (10S,13S,17R)-17-hydroxy-17-(2-hydroxyacetyl)-10,13-dimethyl-6,7,8,10,12,13,14,15,16,17-decahydro-1H-cyclopenta[a]phenanthren-3(2H)-one]: in [1], the “Histology of skeletal muscle: inflammation, degeneration, regenerating fibers” value (shortened to “Histology of skeletal muscle”) was “significant decrease in inflammation, degeneration, and increase in regenerating muscle fibers”.

Consider `C[C@]12C=CC(=O)C=C1CCC1C2=CC[C@@]2(C)C1CC[C@]2(O)C(=O)CO` (stereo partly drawn) [Example 2, (10S,13S,17R)-17-hydroxy-17-(2-hydroxyacetyl)-10,13-dimethyl-6,7,8,10,12,13,14,15,16,17-decahydro-3H-cyclopenta[a]phenanthren-3-one], for which, in data set [1], the “Histology of skeletal muscle” value is “significant decrease in inflammation, degeneration, and increase in regenerating muscle fibers”.

Consider `C[C@@H]1CC2C3CCC4=CC(=O)C=C[C@]4(C)C3=CC[C@]2(C)[C@@]1(O)C(=O)CO` (stereo partly drawn) [Example 7, (10S,13S,16R,17R)-17-hydroxy-17-(2-hydroxyacetyl)-10,13,16-trimethyl-6,7,8,10,12,13,14,15,16,17-decahydro-3H-cyclopenta[a]phenanthren-3-one], for which, in data set [2], the Ejection fraction entry is recorded as “improved ejection fraction” and the Fraction shortening result is “improved fraction shortening”. For the same molecule, in data set [3] (20 mg/kg oral), the “Collagen antibody induced arthritis, overall effect” value is “effective at reducing collagen antibody induced arthritis”. In data set [3], the “Mean clinical severity score, Day 7” value turned out to be 4.5 ± 0.95; the “Mean clinical severity score, Day 9” value stood at 5.0 ± 0.77; the “Mean clinical severity score, Day 11” value amounted to 5.6 ± 0.82; the “Mean clinical severity score, Day 14” value was found to be 3.1 ± 0.69. Also, in [3], the “Reduction as compared with vehicle-treated mice, Day 7” value was 43.8%; the “Reduction as compared with vehicle-treated mice, Day 9” value is 35.5%; the “Reduction as compared with vehicle-treated mice, Day 11” value came to 41.3%; the “Reduction as compared with vehicle-treated mice, Day 14” value is 50%. In data set [4], the Platelet count result was “decreases; also recorded: reduces platelet count”, the “Sensitivity to cold pain” value is given as “strikingly decreases sensitivity to cold pain; also recorded: reduces sensitivity to cold pain”, the “Sensitivity to heat pain” value is recorded as “significantly decreases sensitivity to heat pain; also recorded: reduces sensitivity to heat pain” and the Spleen size result is recorded as “decreased spleen size; also recorded: reduces spleen size”. In addition, the “White blood cell count” value in data set [4] was “decreases white blood cell count; also recorded: reduces white blood cell count”. Besides, in data set [5], the “Corpora lutea in the ovaries” value is reported as “absent bilaterally”. In addition, in [6], the “Paw edema induced by carrageenan (change in paw thickness)” value is recorded as “effective at reducing mouse paw edema”. In addition, the “Acute allergic lung inflammation: leukocyte infiltration (eosinophils and CD4+ T cells) and mucus production” value in [7] was “effective at improving parameters of acute allergic lung inflammation”. Moreover, the “Increase in survival relative to mice treated with dexamethasone or control mice” value in data set [8] (30 mg/kg daily from post-natal days 10-46) worked out at 19%. Also, the Brain edema result in [8] (30 mg/kg oral daily for 14 weeks starting on postnatal day 11) was “significant decrease in brain edema”.

For `C[C@]12C=CC(=O)C=C1CC[C@@H]1[C@@H]2[C@@H](O)C[C@@]2(C)[C@H]1CC[C@]2(O)C(=O)CO` [Prednisolone], the “Specific force of EDL muscle, difference to untreated group” value in data set [9] is given as “no statistically significant (P<0.05) difference”. In addition, the “Histology of skeletal muscle” value in data set [1] is “appeared to increase degeneration and decrease in regeneration”. In [10], the “Body weight versus untreated mice” value is recorded as “significantly lower body weight”.

Consider `C[C@]12C=CC(=O)C=C1CC[C@@H]1[C@@H]2C(=O)C[C@@]2(C)[C@H]1CC[C@]2(O)C(=O)CO` [Prednisone, reference compound], for which, in [3], the “Mean clinical severity score, Day 7” value was 2.4 ± 0.68; the “Mean clinical severity score, Day 9” value is recorded as 1.5 ± 0.27; the “Mean clinical severity score, Day 11” value was 2.9 ± 0.39; the “Mean clinical severity score, Day 14” value stood at 0.7 ± 0.3. Also, in data set [3], the “Reduction as compared with vehicle-treated mice, Day 7” value is recorded as 69.8%; the “Reduction as compared with vehicle-treated mice, Day 9” value was 69.8%; the “Reduction as compared with vehicle-treated mice, Day 11” value is on record as 69.1%; the “Reduction as compared with vehicle-treated mice, Day 14” value is on record as 88.7%.
